From patent publication US20260216294A1, “BETA 2-ADRENERGIC RECEPTOR AGONISTS FOR TREATMENT OR PREVENTION OF MUSCLE WASTING” (ATROGI AB, priority 2023, published 2026)

Legend:
[1] = system: L6-myotubes; assay: Measurement of intracellular cAMP levels in differentiated L6-myotubes (Biological Example 3); format: cell-based; details: 0.25 h
Procedure, shortened: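 Intracellular cAMP quantified by AlphaScreen after ethanol extraction and lysis of L6 myotubes. Cells were serum-starved overnight, then exposed for 15 min to compound (final 1×10^−5 M) or isoprenaline in IBMX-containing (1 mM) HBSS buffer, pH 7.4.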

[2] = system: L6-myotubes; assay: Glucose uptake in differentiated L6-myotubes (Biological Example 2); format: cell-based; details: read-out: Biological example 2 (GU)
Procedure, shortened: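 Uptake was quantified as radioactivity in 0.2 M NaOH lysates after a 10 min pulse of 50 nM ^3H-2-deoxyglucose. The pulse followed two agonist exposures at 1×10^−5 M final (isoprenaline or test compound): 1 h 40 min, then 20 min in glucose-free medium after washing. L6 myotubes had been starved overnight in medium with 0.5% fatty-acid-free BSA.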

[3] = intracellular cAMP in differentiated L6-myotubes, compound at 10 μM, activity relative to isoproterenol at 10 μM
[4] = glucose uptake in differentiated L6-myotubes, compound at 10 μM, activity relative to isoproterenol at 10 μM
[5] = intracellular cAMP, compound at 10 μM relative to isoproterenol at 10 μM
[6] = glucose uptake, compound at 10 μM relative to isoproterenol at 10 μM

Structure (SMILES)	Emax at 10 µM [1, 3]	Emax at 10 µM [2, 4]	Emax at 10 µM [1, 5]	Emax at 10 µM [2, 6]
O[C@@H](c1cncc(F)c1)C12CCC(COCc3ccc(OC(F)(F)F)cc3)(CC1)N2 [Compound 489, (S)-(5-fluoro-3-pyridyl)(4-{[(p-trifluoromethoxyphenyl)methoxy]methyl}-7-azabicyclo[[2.2.1]]hept-1-yl)methanol]	< 25%	< 25%	–	–
CCCCNC[C@H](O)c1cnc(NC(=O)C(C)C)s1 [Compound 74, N-{5-[(S)-2-(butylamino)-1-hydroxyethyl]-1,3-thiazol-2-yl}2-methylpropionamide]	–	–	< 25%	25 to 50%
CC(C)(C)NC[C@H](O)c1cncc(O)c1 [Compound 100, 5-[(R)-2-(tert-butylamino)-1-hydroxyethyl]-3-pyridinol]	–	–	< 25%	> 75%
CC1(C)C[C@@H]([C@H](O)c2cccc(F)c2)N1 [Compound 200, (R)-[(S)-4,4-dimethyl-2-azetidinyl](m-fluorophenyl)methanol]	< 25%	< 25%	–	–
O[C@H](c1cncc(F)c1)[C@H]1CC[C@H](Cc2ccc(Cl)cc2)N1 [Compound 406, (R)-{(2R,5R)-5-[(p-chlorophenyl)methyl]-2-pyrrolidinyl}(5-fluoro-3-pyridyl)methanol]	< 25%	> 75%	–	–
CC(C)(NC[C@H](O)c1cccc(F)c1)[C@H]1CC[C@H](C(=O)O)CC1 [Compound 368, (1R,4r)-8-[(R)-2-(m-fluorophenyl)-2-hydroxyethylamino]-7-hydroxy-p-menthan-7-one]	< 25%	25 to 50%	–	–
O[C@@H](CNCC[C@H]1CC[C@@H](O)CC1)c1cccc(F)c1 [Compound 297, (R)-1-(m-fluorophenyl)-2-{2-[(1s,4S)-4-hydroxycyclohexyl]ethylamino}-1-ethanol]	< 25%	50 to 75%	–	–
COCC12CCC([C@@H](O)c3cccc(F)c3)(CC1)N2 [Compound 329, (S)-(m-fluorophenyl){4-(methoxymethyl)-7-azabicyclo[[2.2.1]]hept-1-yl}methanol]	< 25%	25 to 50%	–	–
COc1ccc(C[C@H]2CC[C@H]([C@@H](O)c3cncc(F)c3)N2)cc1 [Compound 380, (S)-{(2R,5R)-5-[(p-methoxyphenyl)methyl]-2-pyrrolidinyl}(5-fluoro-3-pyridyl)methanol]	< 25%	> 75%	–	–
CCC[C@@H]1CCCC[C@H]([C@H](O)c2cncc(F)c2)N1 [Compound 219, (R)-[(2R,7R)-7-propyl-2-azepanyl](5-fluoro-3-pyridyl)methanol]	< 25%	< 25%	–	–
CC(C)(CC[C@H]1CC[C@H](N)CC1)NC[C@H](O)c1cncc(F)c1 [Compound 358]	< 25%	25 to 50%	–	–
COc1ccc(C[C@H]2CC[C@H]([C@H](O)c3cccc(F)c3)N2)cc1 [Compound 374, (R)-{(2R,5R)-5-[(p-methoxyphenyl)methyl]-2-pyrrolidinyl}(m-fluorophenyl)methanol]	< 25%	> 75%	–	–
CC(C)(C[C@H]1CC[C@H](NS(C)(=O)=O)CC1)NC[C@H](O)c1cncc(F)c1 [Compound 360, (R)-2-{1,1-dimethyl-2-[(1r,4R)-4-(mesylamino)cyclohexyl]ethylamino}-1-(5-fluoro-3-pyridyl)-1-ethanol]	< 25%	> 75%	–	–
CCCS(=O)(=O)N[C@H]1CC[C@@H](CC(C)(C)NC[C@H](O)c2cncc(F)c2)CC1 [Compound 523, (R)-2-{1,1-dimethyl-2-[(1s,4S)-4-(propylsulfonylamino)cyclohexyl]ethylamino}-1-(5-fluoro-3-pyridyl)-1-ethanol]	< 25%	50 to 75%	–	–
CC12CC(C1)[C@H]([C@@H](O)c1cncc(F)c1)N2 [Compound 222, (S)-{(R)-1-methyl-2-azabicyclo[[2.1.1]]hex-3-yl}(5-fluoro-3-pyridyl)methanol]	< 25%	< 25%	–	–
CC12CC(C1)[C@@H]([C@@H](O)c1cncc(F)c1)N2 [Compound 221, (S)-{(S)-1-methyl-2-azabicyclo[[2.1.1]]hex-3-yl}(5-fluoro-3-pyridyl)methanol]	< 25%	50 to 75%	–	–
CO[C@H]1CC[C@H](C[C@@H]2CC[C@H]([C@H](O)c3cncc(F)c3)N2)CC1 [Compound 333]	< 25%	25 to 50%	–	–
CCC[C@H]1CCC[C@H]([C@@H](O)c2cccc(Cl)c2)N1 [Compound 128]	–	–	< 25%	25 to 50%
COC(=O)[C@H]1CC[C@@H](CCC(C)(C)NC[C@H](O)c2cccc(F)c2)CC1 [Compound 351, methyl (1S,4s)-4-{3-[(R)-2-(m-fluorophenyl)-2-hydroxyethylamino]-3-methylbutyl} cyclohexanecarboxylate]	25 to 50%	> 75%	–	–

Structure (SMILES)	Emax at 10 µM [1, 3]	Emax at 10 µM [2, 4]	Emax at 10 µM [1, 5]	Emax at 10 µM [2, 6]
CC(=O)N[C@H]1CC[C@H](CC(C)(C)NC[C@H](O)c2cccnc2C)CC1 [Compound 434]	< 25%	> 75%	–	–
O[C@@H](CNCC[C@H]1CC[C@H](OCc2ccccc2)CC1)c1cncc(F)c1 [Compound 292, (R)-1-(5-fluoro-3-pyridyl)-2-{2-[(1r,4R)-4-(benzyloxy)cyclohexyl]ethylamino}-1-ethanol]	< 25%	< 25%	–	–
CC12CC(C1)[C@@H]([C@H](O)c1cncc(F)c1)N2 [Compound 223, (R)-{(S)-1-methyl-2-azabicyclo[[2.1.1]]hex-3-yl}(5-fluoro-3-pyridyl)methanol]	< 25%	25 to 50%	–	–
CC1(C)CC[C@H]([C@H](O)c2cccc(F)c2)N1 [Compound 110]	–	–	< 25%	> 75%
CC1(C)CC[C@H]([C@H](O)c2ccc(F)cc2)N1 [Compound 173]	–	–	< 25%	50 to 75%
CC(C)(CC[C@H]1CC[C@H](C(=O)O)CC1)NC[C@H](O)c1cncc(F)c1 [Compound 343, (1R,4r)-4-{3-[(R)-2-(5-fluoro-3-pyridyl)-2-hydroxyethylamino]-3-methylbutyl} cyclohexanecarboxylic acid]	< 25%	25 to 50%	–	–
COC(=O)[C@H]1CC[C@H](CCC(C)(C)NC[C@H](O)c2cncc(F)c2)CC1 [Compound 342, methyl (1R,4r)-4-{3-[(R)-2-(5-fluoro-3-pyridyl)-2-hydroxyethylamino]-3-methylbutyl} cyclohexanecarboxylate]	< 25%	> 75%	–	–
CCCC1(CCC)CC[C@H]([C@@H](O)c2cccc(F)c2)N1 [Compound 158, (S)-[(R)-5,5-dipropyl-2-pyrrolidinyl](m-fluorophenyl)methanol]	–	–	< 25%	< 25%
CC(=O)N[C@H]1CC[C@H](CC(C)(C)NC[C@@H](O)c2cccc(C#N)n2)CC1 [Compound 427]	< 25%	< 25%	–	–
CC(C)(C)NCC(O)c1ccc(O)cc1 (stereo not shown) [Compound 4, 2-(tert-butylamino)-1-(p-hydroxyphenyl)-1-ethanol]	–	–	25 to 50%	> 75%
CCCCNC[C@H](O)c1csc(C(F)(F)F)n1 [Compound 72, (S)-2-(butylamino)-1-[2-(trifluoromethyl)-1,3-thiazol-4-yl]-1-ethanol]	–	–	< 25%	25 to 50%
O[C@@H](c1cccc(F)c1)[C@H]1CCC2(CCCC2)N1 [Compound 169]	–	–	< 25%	< 25%
CC12CCC([C@H](O)c3cncc(F)c3)(CC1)N2 [Compound 185, (R)-(5-fluoro-3-pyridyl)(4-methyl-7-azabicyclo[[2.2.1]]hept-1-yl)methanol]	–	–	< 25%	> 75%
CCCCNC[C@H](O)c1cnc(N)nc1 [Compound 89, (R)-1-(2-amino-5-pyrimidinyl)-2-(butylamino)-1-ethanol]	–	–	< 25%	50 to 75%
CO[C@H]1CC[C@H](C[C@@H]2CC[C@H]([C@@H](O)c3cccc(F)c3)N2)CC1 [Compound 325, (S)-[(2R,5S)-5-{[(1r,4S)-4-methoxycyclohexyl]methyl}-2-pyrrolidinyl](m-fluorophenyl)methanol]	< 25%	> 75%	–	–
CO[C@H]1CC[C@H](C(C)(C)NC[C@H](O)c2cccc(F)c2)CC1 [Compound 239, (R)-1-(m-fluorophenyl)-2-{1-methyl-1-[(1r,4R)-4-methoxycyclohexyl]ethylamino}-1-ethanol]	< 25%	> 75%	–	–
O[C@@H](c1cccc(F)c1)C12CCC(C/C=C/c3ccccc3)(CC1)N2 [Compound 533, (S)-{4-[(E)-3-phenyl-2-propenyl]-7-azabicyclo[[2.2.1]]hept-1-yl}(m-fluorophenyl)methanol]	< 25%	< 25%	–	–
CCCCNC[C@H](O)c1cccc(O)c1F [Compound 87, (R)-2-(butylamino)-1-(2-fluoro-3-hydroxyphenyl)-1-ethanol]	–	–	25 to 50%	> 75%
COc1ccc(CCC23CCC([C@@H](O)c4cccc(F)c4)(CC2)N3)cc1 [Compound 539, (S)-(m-fluorophenyl){4-[2-(p-methoxyphenyl)ethyl]-7-azabicyclo[[2.2.1]]hept-1-yl}methanol]	< 25%	< 25%	–	–
